Data reported in patent US9066861B2 (priority 2009, dated 2015).

Assay: Assay (%) test of APIs in cream, stability study, HPLC method
Format: physicochemical
Experimental: The stability of the product is confirmed by the stability studies performed for 3/6 months as per ICH guidelines.
APIs-stability experiments were carried out (see tables 3-20) using several products that are representative of the present invention. Tests were carried out to observe (or measure as appropriate) the physical appearance of the product, the pH value and assay of the APIs over a period of time. […] Betamethasone Valerate—0.12% (w/w) • ii. Fluticasone Propionate—0.05% (w/w) • iii. Mometasone Furoate—0.1% (w/w) • iv. Dexamethasone Acetate—0.1% (w/w) • v. Hydrocortisone Acetate—1.0% (w/w) • vi. Clobetasol Propionate—0.05% (w/w) • vii. Beclomethasone Dipropionate—0.025% (w/w) • viii. Betamethasone Dipropionate—0.05% (w/w) wherein all percentages are with respect to the final formulation.
The product used for the Stability Studies tests contained approximately 10% extra APIs (overages).

In the case of `CC(=O)O[C@H]1C[C@@]2(C)[C@@H](C[C@@H](O)[C@H]3[C@@]4(C)CC[C@@H](O)[C@@H](C)[C@@H]4CC[C@@]32C)/C1=C(\CCC=C(C)C)C(=O)O` [Fusidic acid], the “Assay (%)” value (in cream Batch No. HAS-01, 25° C. 60% RH, 1st Month) is reported as 108.50%, the “Assay (%)” value (in cream Batch No. HAS-01, 25° C. 60% RH, 2nd Month) is reported as 108.44% and the “Assay (%)” value (in cream Batch No. HAS-01, 25° C. 60% RH, 3rd Month) is reported as 108.36%. For the same compound, the “Assay (%)” value (in cream Batch No. HAS-01, 30° C. 65% RH, 1st Month) was 108.51%, the “Assay (%)” value (in cream Batch No. HAS-01, 30° C. 65% RH, 2nd Month) was 108.42% and the “Assay (%)” value (in cream Batch No. HAS-01, 30° C. 65% RH, 3rd Month) was 108.32%. The “Assay (%)” value (in cream Batch No. HAS-01, 40° C. 75% RH, 1st Month) was 108.48%, the “Assay (%)” value (in cream Batch No. HAS-01, 40° C. 75% RH, 2nd Month) was 108.34% and the “Assay (%)” value (in cream Batch No. HAS-01, 40° C. 75% RH, 3rd Month) was 108.20%. For the same compound, the “Assay (%)” value (in cream Batch No. HAS-01, Freezthaw, 1st Month) was 108.31%, the “Assay (%)” value (in cream Batch No. HAS-01, Initial) was 108.52% and the “Assay (%)” value (in cream Batch No. HAS-01, Temperature cycling, 1st Month) was 108.40%. The “Assay (%)” value (in cream Batch No. SBV-01, 25° C. 60% RH, 1st Month) was 108.54%, the “Assay (%)” value (in cream Batch No. SBV-01, 25° C. 60% RH, 2nd Month) was 108.42% and the “Assay (%)” value (in cream Batch No. SBV-01, 25° C. 60% RH, 3rd Month) was 108.40%. For the same compound, the “Assay (%)” value (in cream Batch No. SBV-01, 30° C. 65% RH, 1st Month) was 108.53%, the “Assay (%)” value (in cream Batch No. SBV-01, 30° C. 65% RH, 2nd Month) was 108.41% and the “Assay (%)” value (in cream Batch No. SBV-01, 30° C. 65% RH, 3rd Month) was 108.36%. The “Assay (%)” value (in cream Batch No. SBV-01, 40° C. 75% RH, 1st Month) was 108.46%, the “Assay (%)” value (in cream Batch No. SBV-01, 40° C. 75% RH, 2nd Month) was 108.16% and the “Assay (%)” value (in cream Batch No. SBV-01, 40° C. 75% RH, 3rd Month) was 108.11%. For the same compound, the “Assay (%)” value (in cream Batch No. SBV-01, Freezthaw, 1st Month) was 108.01%, the “Assay (%)” value (in cream Batch No. SBV-01, Initial) was 108.57% and the “Assay (%)” value (in cream Batch No. SBV-01, Temperature cycling, 1st Month) was 107.53%. For the same compound, the “Assay (%)” value (in cream Batch No. SFB-01, 25° C. 60% RH, 1st Month) was 108.22%, the “Assay (%)” value (in cream Batch No. SFB-01, 25° C. 60% RH, 2nd Month) was 108.18% and the “Assay (%)” value (in cream Batch No. SFB-01, 25° C. 60% RH, 3rd Month) was 108.15%. For the same compound, the “Assay (%)” value (in cream Batch No. SFB-01, 30° C. 65% RH, 1st Month) was 108.25%, the “Assay (%)” value (in cream Batch No. SFB-01, 30° C. 65% RH, 2nd Month) was 108.22% and the “Assay (%)” value (in cream Batch No. SFB-01, 30° C. 65% RH, 3rd Month) was 108.18%. For the same compound, the “Assay (%)” value (in cream Batch No. SFB-01, 40° C. 75% RH, 1st Month) was 108.25%, the “Assay (%)” value (in cream Batch No. SFB-01, 40° C. 75% RH, 2nd Month) was 108.20% and the “Assay (%)” value (in cream Batch No. SFB-01, 40° C. 75% RH, 3rd Month) was 108.12%. For the same compound, the “Assay (%)” value (in cream Batch No. SFB-01, Freezthaw, 1st Month) was 108.11%, the “Assay (%)” value (in cream Batch No. SFB-01, Initial) was 108.28% and the “Assay (%)” value (in cream Batch No. SFB-01, Temperature cycling, 1st Month) was 108.23%. The “Assay (%)” value (in cream Batch No. SFC-01, 25° C. 60% RH, 1st Month) was 108.64%, the “Assay (%)” value (in cream Batch No. SFC-01, 25° C. 60% RH, 2nd Month) was 108.52% and the “Assay (%)” value (in cream Batch No. SFC-01, 25° C. 60% RH, 3rd Month) was 108.48%. The “Assay (%)” value (in cream Batch No. SFC-01, 25° C. 60% RH, 6th Month) was 108.38%, the “Assay (%)” value (in cream Batch No. SFC-01, 30° C. 65% RH, 1st Month) was 108.53% and the “Assay (%)” value (in cream Batch No. SFC-01, 30° C. 65% RH, 2nd Month) was 108.31%. The “Assay (%)” value (in cream Batch No. SFC-01, 30° C. 65% RH, 3rd Month) was 108.26%, the “Assay (%)” value (in cream Batch No. SFC-01, 30° C. 65% RH, 6th Month) was 108.22% and the “Assay (%)” value (in cream Batch No. SFC-01, 40° C. 75% RH, 1st Month) was 108.56%. For the same compound, the “Assay (%)” value (in cream Batch No. SFC-01, 40° C. 75% RH, 2nd Month) was 108.36%, the “Assay (%)” value (in cream Batch No. SFC-01, 40° C. 75% RH, 3rd Month) was 108.21% and the “Assay (%)” value (in cream Batch No. SFC-01, 40° C. 75% RH, 6th Month) was 108.18%. The “Assay (%)” value (in cream Batch No. SFC-01, Freezthaw, 1st Month) was 108.21%, the “Assay (%)” value (in cream Batch No. SFC-01, Initial) was 108.68% and the “Assay (%)” value (in cream Batch No. SFC-01, Temperature cycling, 1st Month) was 108.10%. For the same compound, the “Assay (%)” value (in cream Batch No. SFD-01, 25° C. 60% RH, 1st Month) was 108.60%, the “Assay (%)” value (in cream Batch No. SFD-01, 25° C. 60% RH, 2nd Month) was 108.54% and the “Assay (%)” value (in cream Batch No. SFD-01, 25° C. 60% RH, 3rd Month) was 108.46%. The “Assay (%)” value (in cream Batch No. SFD-01, 30° C. 65% RH, 1st Month) was 108.63% and the “Assay (%)” value (in cream Batch No. SFD-01, 30° C. 65% RH, 2nd Month) was 108.52%.
